The test system of series [1] is P. falciparum Pf3D7 (CQ-sensitive) erythrocytic stages. Kind of series: In vitro drug sensitivity assay (HRP2-ELISA) against erythrocytic stages, strain 3D7. The conditions noted are these: Plasmodium falciparum, 72 h, read-out: IC50 Pf3D7. In kind it is cell-based. On the procedure:
(§1) Antiplasmodial activity of fumardiamides 1–6 and 11–16 was tested in a drug sensitivity assay against two laboratory P. falciparum strains (3D7—CQ-sensitive, and Dd2—CQ-resistant), as previously described, using the histidine-rich protein 2 (HRP2) assay. In brief, 96-well plates were pre-coated with the tested compounds in a three-fold dilution before ring stage parasites were added in complete culture medium at a hematocrit of 1.5% and a parasitaemia of 0.05%. After three days of incubation at 37 °C, 5% CO2, and 5% oxygen, plates were frozen until analyzed by HRP2-ELISA. All compounds were evaluated in duplicate in at least two independent experiments. The IC50 was determined by analysing the nonlinear regression of log concentration-response curves using the drc-package v0.9.0 of R v2.6.1 [27].

The test system of series [2] is P. falciparum PfDd2 (CQ-resistant) erythrocytic stages. Kind of series: In vitro drug sensitivity assay (HRP2-ELISA) against erythrocytic stages, strain Dd2. In kind it is cell-based. The conditions noted are these: Plasmodium falciparum, 72 h, read-out: IC50 PfDd2. The protocol:
as §1
Background: ELISA stands for enzyme-linked immunosorbent assay.

The test system of series [3] is P. berghei hepatic stages. Nature of the series: In vitro activity against P. berghei hepatic stages (luciferase parasite load in Huh7 cells). Type of series: cell-based. To be noted: Plasmodium berghei, Huh-7, read-out: IC50 P. bergei. The protocol:
In vitro activity of the tested compounds against the liver stage of P. berghei infection was assessed as previously described. […] Next, 10 mM stock solutions of test compounds were prepared in DMSO and were serially diluted in infection medium, i.e., culture medium supplemented with gentamicin (50 μg/mL) and amphotericin B (0.8 μg/mL), in order to obtain the test concentrations.
To assess the effect of each compound concentration in cell viability, at 46 hours post-infection (hpi), cultures were incubated with Alamar Blue (Thermo Fisher Scientific, Waltham, MA, USA), according to the manufacturer’s recommendations. Parasite load was then assessed by the bioluminescence assay (Biotium, Fremont, CA, USA), using the multi-plate reader Infinite M200 (Tecan, Männedorf, Switzerland). Nonlinear regression analysis was employed to fit the normalized results of the dose–response curves, and IC50 values were determined using GraphPad Prism 6.0 (GraphPad Software, La Jolla California USA).

For series [4], the system named is MCF-7 (breast adenocarcinoma). Kind of series: Cytotoxicity MTT assay, MCF-7. To be noted: Homo sapiens, read-out: IC50 MCF-7. Type of series: cell-based. The protocol: (§2) The experiments were carried out on 2 human cell lines: MCF-7 (breast carcinoma) and HEK293T (embryonic kidney). MCF-7 and HEK293T cells were cultured as monolayers and maintained in Dulbecco’s modified Eagle medium (DMEM), supplemented with 10% fetal bovine serum (FBS), 2 mM L-glutamine, 100 U/mL penicillin, and 100 μg/mL streptomycin in a humidified atmosphere with 5% CO2 at 37 °C. The panel cell lines were inoculated in parallel onto a series of standard 96-well microtiter plates on day 0, at 1 × 10^4 to 3 × 10^4 cells/mL, depending on the doubling time of a specific cell line. Test compounds were then added in five 10-fold dilutions (10^−8 to 10^−4 M) alone or in combination with 6-AN (c = 1 µM) and incubated for a further 72 hours. Working dilutions were freshly prepared on the day of the testing.
(§3) After 72 hours of incubation, the cell growth rate was evaluated by performing the MTT assay. The absorbance was directly proportional to cell viability. Each test point was performed in quadruplicate in three individual experiments. The IC50 values were calculated from the dose–response curves using linear regression analysis. Each result is a mean value from at least two separate experiments.

For series [5], the system named is HEK293T (non-tumour embryonic kidney). Kind of series: Cytotoxicity MTT assay, HEK293T. The conditions noted are these: Homo sapiens, HEK-293T, read-out: IC50 HEK293T. Type of series: cell-based. The protocol:
as §2, §3
A general note: Tetrazolium assays rely on reduction of a dye to a coloured formazan, in cell work by metabolically active cells.

Details of series [6]: method as in PMID 24360369. The conditions noted are these: cited from earlier work.
Setting [7] is: erythrocytic stages, CQ-sensitive strain, three days of incubation, HRP2-ELISA.
Where [8] appears, read: erythrocytic stages, CQ-resistant strain, three days of incubation, HRP2-ELISA.

Like-named read-outs stand apart in the source and are kept apart here. Some results are limits rather than exact numbers.

As a reminder, the IC50 is the point on the concentration scale where inhibition reaches its midpoint. With `CCN(CC)CCCC(C)Nc1ccnc2cc(Cl)ccc12` (stereo not shown) [CQ, chloroquine], the IC50 in series [1] is 3.7 nM; in series [2], 241 nM.
For `COc1cc(NC(C)CCCNC(=O)/C=C/C(=O)Nc2cccc(F)c2)c2ncccc2c1` (stereo not shown) [Compound 1], the IC50 was 13800 nM in series [1] (setting [7]) and 20000 nM in series [2] (setting [8]).
For `COc1cc(NC(C)CCCNC(=O)/C=C/C(=O)Nc2ccc(F)cc2)c2ncccc2c1` (stereo not shown) [Compound 2], in that order: 7740 nM and over 13000 nM.
Take `COc1cc(NC(C)CCCNC(=O)/C=C/C(=O)Nc2cccc(Cl)c2)c2ncccc2c1` (stereo not shown) [Compound 3]: the IC50 in series [1] (setting [7]) is over 13000 nM; in series [2] (setting [8]), 13600 nM; in series [3], 270 ± 60 nM.
`COc1cc(NC(C)CCCNC(=O)/C=C/C(=O)Nc2ccc(Cl)cc2)c2ncccc2c1` (stereo not shown) [Compound 4]: the IC50 is over 13000 nM in series [1] (setting [7]), over 13000 nM in series [2] (setting [8]) and 390 ± 10 nM in series [3].
For `COc1cc(NC(C)CCCNC(=O)/C=C/C(=O)Nc2cccc(C(F)(F)F)c2)c2ncccc2c1` (stereo not shown) [Compound 5], the IC50 in series [1] (setting [7]) is 13900 nM; in series [2] (setting [8]) it was 10700 nM; in series [3] it was 270 ± 80 nM; in series [4] (MCF7, alone, 72 hours, MTT), at least 100000 nM; in series [5] (alone, 72 hours, MTT), at least 100000 nM.
With `NC(=O)c1ccc(N)nc1` [Compound 6-AN, 6-aminonicotinamide, reference compound], the half-inhibitory concentration (IC50) in series [4] (MCF7, 72 h) is 2000 ± 300 nM; in series [5] (72 h), 10000 ± 7000 nM.
For the compound `COc1cc(NC(C)CCCNC(=O)/C=C/C(=O)Nc2ccc(C(F)(F)F)cc2)c2ncccc2c1` (stereo not shown) [Compound 6], the IC50 in series [1] (setting [7]) was 13000 nM; in series [2] (setting [8]) it was 18400 nM; in series [3], 110 ± 20 nM; in series [4] (MCF7, alone, 72 hours, MTT) it was at least 100000 nM; in series [5] (alone, 72 hours, MTT), at least 100000 nM.
Turning to `O=C(/C=C/C(=O)Nc1cccc(F)c1)NCCCCNc1ccnc2cc(Cl)ccc12` [Compound 11, (2E)-N’-{4-[(7-chloroquinolin-4-yl)amino]butyl}-N-(3-fluorophenyl)but-2-enediamide], the 50% inhibitory concentration (IC50) turned out to be 144 nM in series [1] (setting [7]) and 7020 nM in series [2] (setting [8]).
The melting point is the temperature, or range, at which the solid turns liquid. In the case of `O=C(/C=C/C(=O)Nc1ccc(F)cc1)NCCCCNc1ccnc2cc(Cl)ccc12` [Compound 12, (2E)-N’-{4-[(7-chloroquinolin-4-yl)amino]butyl}-N-(4-fluorophenyl)but-2-enediamide], the melting point is 239 °C (dec.). In addition, the IC50 in series [1] (setting [7]) was 67 nM. The IC50 in series [2] (setting [8]) was 1880 nM.
For the compound `O=C(/C=C/C(=O)Nc1cccc(Cl)c1)NCCCCNc1ccnc2cc(Cl)ccc12` [Compound 13, (2E)-N-(3-chlorophenyl)-N’-{4-[(7-chloroquinolin-4-yl)amino]butyl}but-2-enediamide], the IC50 came out at 83 nM in series [1] (setting [7]) and 6960 nM in series [2] (setting [8]).
With `O=C(/C=C/C(=O)Nc1ccc(Cl)cc1)NCCCCNc1ccnc2cc(Cl)ccc12` [Compound 14, (2E)-N-(4-chlorophenyl)-N’-{4-[(7-chloroquinolin-4-yl)amino]butyl}but-2-enediamide], the melting point was 237 °C (dec.). Further, the IC50 in series [1] (setting [7]) came to 35 nM. Besides, the IC50 in series [2] (setting [8]) is 890 nM.
On to `O=C(/C=C/C(=O)Nc1cccc(C(F)(F)F)c1)NCCCCNc1ccnc2cc(Cl)ccc12` [Compound 15, (2E)-N’-{4-[(7-chloroquinolin-4-yl)amino]butyl}-N-[3-(trifluoromethyl)phenyl]but-2-enediamide], for which the results for the IC50 in series [1] (setting [7]) and in series [2] (setting [8]) were 194 nM and 3220 nM, respectively.
In the case of `O=C(/C=C/C(=O)Nc1ccc(C(F)(F)F)cc1)NCCCCNc1ccnc2cc(Cl)ccc12` [Compound 16, (2E)-N’-{4-[(7-chloroquinolin-4-yl)amino]butyl}-N-[4-(trifluoromethyl)phenyl]but-2-enediamide], the melting point is 270 °C (dec.). For the same compound, the IC50 in series [1] (setting [7]) came out at 35 nM. For the same compound, the IC50 in series [2] (setting [8]) worked out at 379 nM.
`COc1cc(NC(C)CCCN)c2ncccc2c1` (stereo not shown) [PQ, primaquine]: the IC50 in series [1] (setting [7]) was determined as 1990 nM; in series [2] (setting [8]), 1820 nM; in series [3] it was 8400 ± 3400 nM.
As to `COc1cc(C)c2c(Oc3cccc(C(F)(F)F)c3)c(OC)cc(NC(C)CCCN)c2n1` (stereo not shown) [TQ, Tafenoquine], in series [6], the elimination half-life result is “approximately 15 days”.

The record behind these values is article PMC6695747, “Primaquine and Chloroquine Fumardiamides as Promising Antiplasmodial Agents” (Molecules, 2019).
